US20260116910A1, “POLYCYCLIC COMPOUNDS AND METHODS THEREOF” (HEPAITECH (BEIJING) BIOPHARMA TECHNOLOGY CO., LTD., priority 2021, published 2026)
Like-named read-outs stand apart in the source and are kept apart here.

What was measured:
human FXR (NR1H4) = molecular target: T1, human FXR (NR1H4) (Homo sapiens, UniProt Q96RI1); assay: Human FXR (NR1H4) agonist assessment, FXRE-NanoLuc reporter in HEK293T cells; format: cell-based; details: for EC50: read-out: EC50
T1 sequence (Q96RI1 1-476 isoform Q96RI1-1): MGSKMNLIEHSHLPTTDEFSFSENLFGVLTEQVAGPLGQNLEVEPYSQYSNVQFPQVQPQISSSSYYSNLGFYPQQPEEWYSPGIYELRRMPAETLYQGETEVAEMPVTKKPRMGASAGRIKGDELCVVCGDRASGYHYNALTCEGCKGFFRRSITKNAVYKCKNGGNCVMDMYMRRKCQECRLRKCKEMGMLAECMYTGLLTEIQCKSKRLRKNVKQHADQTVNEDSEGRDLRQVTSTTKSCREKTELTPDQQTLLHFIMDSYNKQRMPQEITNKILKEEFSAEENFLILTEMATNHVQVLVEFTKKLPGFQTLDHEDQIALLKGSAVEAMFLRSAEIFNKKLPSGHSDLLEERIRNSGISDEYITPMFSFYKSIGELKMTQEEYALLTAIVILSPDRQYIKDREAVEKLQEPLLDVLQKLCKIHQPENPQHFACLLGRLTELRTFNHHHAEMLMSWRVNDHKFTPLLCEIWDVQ
Experimental: As those skilled in the art appreciate, various technologies are available for assessment of FXR activation in accordance with the present disclosure. […] Human FXR (NR1H4) agonist assessment (see, e.g., Yu et al. eLife 2019; 8: e48431): HEK293T cells stably expressing human FXR and containing FXR response element (FXRE)-NanoLuc reporter were cultured in DMEM medium supplemented with 10% FBS and 1% PS, at 37° C. in a humidified atmosphere with 5% CO2. Cells were detached by centrifuging (1000 rpm, 3 min). The pellet was re-suspended in medium, and cell density was adjusted to about 1×10^6 cells/mL. 100 μL suspension was seeded to each well of a white-walled, clear-bottom 96-well microplates (cell plate). Cells in microplates were cultured overnight.
In the following day, cells were grown to higher than 95% density in each well. Culture medium was replaced, and compounds were added to the wells. 0.01% DMSO (v/v) served as negative control. Plates were incubated at 37° C. in 5% CO2 for 24 hr.
In the following day, a 10 μL aliquot of cell culture medium was removed from each well and combined with 40 μL culture medium plus […] assay buffer (containing 20 mM of the luciferase substrate coelenterazine). After 5 min incubation, luminescence was measured using an EnVision plate reader (PerkinElmer).
In some embodiments, gradient diluted solutions of several concentrations were used to treat cells and corresponding responses were used to fit sigmoid function and to derive EC50 in Origin.

MRGPRX4 = MRGPRX4 (Homo sapiens, UniProt Q96LA9); assay: MRGPRX4 activation, Fluo-8 Ca2+ FLIPR assay in HEK293T cells stably expressing MRGPRX4; format: cell-based; details: MRGPRX4 activation, Ca2+ fluorescence; no activation in tested range reported as III; read-out: Activity (EC50 μM)
Experimental: In some embodiments, cells were cultured in poly-D-Lys coated blacked walled, clear-bottom 96-well microplates. HEK293T cells stably expressing MRGPRX4 were cultured in DMEM medium supplemented with 10% FBS and 1% PS, at 37° C. in a humidified atmosphere with 5% CO2. Cells were detached by centrifuging (1000 rpm, 3 min). The pellet was re-suspended in medium, and cell density was adjusted to about 1×10^6 cells/mL. 100 μL suspension was seeded to each well of a microplates (cell plate). Cells in the microplates were cultured overnight. In the following day, cells were grown to higher than 95% density in each well.
Ca^2+ fluorescent dye loading: Fluo-8 AM (Screen Quest Fluo-8 AM Calcium Assay Kit, AAT Bioquest, cat. #: 21083) was diluted in HHBS buffer and adjusted to 2 μM (dye buffer). Medium in each well was changed into 50 μL dye buffer carefully. After incubation for 40-60 min under room temperature, the dye buffer was changed into 50 μL HHBS buffer.
The concentration of solution should be determined according to the protocol settings and experimental needs (e.g., Log[M]=−4, −5, −6, −7, −8, and −9). Prepare 2× serial dilution series of compounds (at least 75 μL per well).
A fluorescent signal baseline was measured using FLIPR®Tetra for 30 s. Then 50 μL of the chemical solution would be added to the cell plate. The fluorescent signal would be measured for another 150 s.
Activity of each compound was calculated by the fluorescence change (dF/F0). Curves were fitted to obtain EC50 values. In some embodiments, at least 3 repeats were performed to obtain the average values. For assessment of a compound, gradient diluted solutions of different concentrations were used to treat cells and corresponding responses were used to fit sigmoid function and to derive EC50 in Origin. In some embodiments, assessed concentrations were or included about 10^−4, 10^−4.5, 10^−5, 10^−5.5, 10^−6, 10^−6.5, 10^−7, 10^−8, and/or 10^−9 M; for example, in many instances, assessed concentrations included about 10^−5, 10^−6, 10^−7 and 10^−8 M. In some embodiments, assessed concentrations were about 10^−4, 10^−4.5, 10^−5, 10^−5.5, 10^−6, 10^−7, 10^−8, and 10^−9 M. In some embodiments, assessed concentrations were about 10^−4, 10^−5, 10^−6, 10^−7, 10^−8, and 10^−9 M. In some embodiments, assessed concentrations were about 10^−4, 10^−4.5, 10^−5, 10^−5.5, 10^−6, and 10^−7 M. In some embodiments, assessed concentrations were about 2000000, 1000000, 500000, 250000, 125000, 62500, 31250, 15625, 7813, 3906 nM. […] In some embodiments, assessed concentrations were about 30000, 10000, 3333, 1111, 370, 123, 41, 14, 4.6, 1.5 nM.

[1] = FXR activation, HEK293T FXRE-NanoLuc reporter, 24 hr

Chain of MRGPRX4 (Q96LA9 whole entry): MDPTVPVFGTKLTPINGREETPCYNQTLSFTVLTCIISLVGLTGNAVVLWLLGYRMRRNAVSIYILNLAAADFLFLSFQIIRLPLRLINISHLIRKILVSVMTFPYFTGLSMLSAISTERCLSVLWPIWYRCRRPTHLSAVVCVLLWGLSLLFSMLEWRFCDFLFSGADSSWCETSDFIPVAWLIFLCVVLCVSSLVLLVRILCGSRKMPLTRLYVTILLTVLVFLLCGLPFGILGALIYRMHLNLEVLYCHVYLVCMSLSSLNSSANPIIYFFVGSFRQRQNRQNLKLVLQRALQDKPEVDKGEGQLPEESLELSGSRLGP

Compound	Efficacy (maximum measured induction of NanoLuc, normalized to CDCA set as 100%) (human FXR (NR1H4); [1])	EC50 (human FXR (NR1H4); [1]) [nM]	EC50 (MRGPRX4) [µM]	Efficacy (maximum measured induction of NanoLuc, normalized to CDCA set as 100%) (human FXR (NR1H4))
CC[C@H]1[C@@H](O)[C@@H]2[C@H](CC[C@]3(C)[C@@H]([C@H](C)CCC(=O)O)CC[C@@H]23)[C@@]2(C)CC[C@H](F)C[C@@H]12 [1-1]	C (100%<efficacy <=300%)	1000 to 10000	> 100	–
CC[C@H]1[C@@H](O)[C@@H]2[C@H](CC[C@]3(C)[C@@H]([C@H](C)CCNC(=S)NS(=O)(=O)c4cccs4)CC[C@@H]23)[C@@]2(C)CCCC[C@@H]12 [7-3]	–	< 1000	–	C (key: A: efficacy >400%; B: 300%<efficacy <=400%; C: 100%<efficacy <=300%; D: efficacy <=100%)
CC[C@H]1[C@@H](O)[C@@H]2[C@H](CC[C@]3(C)[C@@H]([C@H](C)CCNC(=O)C(=O)O)CC[C@@H]23)[C@@]2(C)CCCC[C@@H]12 [8-1]	B (300%<efficacy <=400%)	1000 to 10000	–	–
CC[C@H]1[C@@H](O)[C@@H]2[C@H](CC[C@]3(C)[C@@H]([C@H](C)CCN)CC[C@@H]23)[C@@]2(C)CCC(F)(F)C[C@@H]12 [11-1]	C (100%<efficacy <=300%)	> 10000	–	–
CC[C@H]1[C@@H](O)[C@@H]2[C@H](CC[C@]3(C)[C@@H]([C@H](C)CCc4nnc(C(C)C)s4)CC[C@@H]23)[C@@]2(C)CCCC[C@@H]12 [15-1]	B (300%<efficacy <=400%)	1000 to 10000	–	–
CC[C@H]1[C@@H](O)[C@@H]2[C@H](CC[C@]3(C)[C@@H]([C@H](C)CCc4nnc(N)[nH]4)CC[C@@H]23)[C@@]2(C)CCCC[C@@H]12 [15-2]	C (100%<efficacy <=300%)	< 1000	–	–
CC[C@H]1[C@@H](O)[C@@H]2[C@H](CC[C@]3(C)[C@@H]([C@H](C)CCc4nnc(NS(=O)(=O)c5ccc6c(c5)OCO6)[nH]4)CC[C@@H]23)[C@@]2(C)CCCC[C@@H]12 [15-3]	C (100%<efficacy <=300%)	1000 to 10000	–	–
CC[C@H]1[C@@H](O)[C@@H]2[C@H](CC[C@]3(C)[C@@H]([C@H](C)CCC(=O)Nc4nnn[nH]4)CC[C@@H]23)[C@@]2(C)CCCC[C@@H]12 [16-1]	–	1000 to 10000	–	B (key: A: efficacy >400%; B: 300%<efficacy <=400%; C: 100%<efficacy <=300%; D: efficacy <=100%)
CC[C@H]1[C@@H](O)[C@@H]2[C@H](CC[C@]3(C)[C@@H]([C@H](C)Cc4nnn[nH]4)CC[C@@H]23)[C@@]2(C)CCCC[C@@H]12 [16-2]	C (100%<efficacy <=300%)	< 1000	–	–
CC[C@H]1[C@@H](O)[C@@H]2[C@H](CC[C@]3(C)[C@@H]([C@H](C)CCNC(=N)N)CC[C@@H]23)[C@@]2(C)CCCC[C@@H]12 [17-1]	A (efficacy >400%)	< 1000	–	–
CC[C@H]1[C@@H](O)[C@@H]2[C@H](CC[C@]3(C)[C@@H]([C@H](C)CCNC(=N)NS(=O)(=O)c4cccs4)CC[C@@H]23)[C@@]2(C)CCCC[C@@H]12 [17-2]	B (300%<efficacy <=400%)	< 1000	–	–
CC[C@H]1[C@@H](O)[C@@H]2[C@H](CC[C@]3(C)[C@@H]([C@H](C)CCOC(=O)NS(=O)(=O)c4ccc5c(c4)CCC(C)(C)O5)CC[C@@H]23)[C@@]2(C)CCCC[C@@H]12 [19-1]	B (300%<efficacy <=400%)	< 1000	–	–
CC[C@H]1[C@@H](O)[C@@H]2[C@H](CC[C@]3(C)[C@@H]([C@H](C)CCOC(=O)NS(=O)(=O)c4ccc(N5CCCCC5)nc4)CC[C@@H]23)[C@@]2(C)CCCC[C@@H]12 [19-2]	B (300%<efficacy <=400%)	< 1000	–	–
CC[C@H]1[C@@H](O)[C@@H]2[C@H](CC[C@]3(C)[C@@H]([C@H](C)CCOC(=O)NS(=O)(=O)c4ccc(C(C)(C)CF)cc4)CC[C@@H]23)[C@@]2(C)CCCC[C@@H]12 [19-3]	A (efficacy >400%)	< 1000	–	–
C[C@H](CCNC(=O)NS(=O)(=O)c1ccc(C(C)(C)CF)cc1)[C@H]1CC[C@H]2[C@@H]3CC[C@@H]4CCCC[C@]4(C)[C@H]3CC[C@]12C [21-1]	–	1000 to 10000	–	B (key: A: efficacy >400%; B: 300%<efficacy <=400%; C: 100%<efficacy <=300%; D: efficacy <=100%)
C[C@H](CCCOC(=O)NS(=O)(=O)c1ccc(C(C)(C)CF)cc1)[C@H]1CC[C@H]2[C@@H]3CC[C@@H]4CCCC[C@]4(C)[C@H]3CC[C@]12C [22-1]	–	1000 to 10000	–	B (key: A: efficacy >400%; B: 300%<efficacy <=400%; C: 100%<efficacy <=300%; D: efficacy <=100%)
C[C@H](CNC(=O)NS(=O)(=O)c1ccc(C(C)(C)CF)cc1)[C@H]1CC[C@H]2[C@@H]3CC[C@@H]4CCCC[C@]4(C)[C@H]3CC[C@]12C [23-1]	B (300%<efficacy <=400%)	1000 to 10000	–	–
C[C@H](CCCCNC(=O)NS(=O)(=O)c1ccc(C(C)(C)CF)cc1)[C@H]1CC[C@H]2[C@@H]3CC[C@@H]4CCCC[C@]4(C)[C@H]3CC[C@]12C [24-1]	B (300%<efficacy <=400%)	1000 to 10000	–	–
C[C@H](CCC(=O)O)[C@H]1CC[C@H]2[C@@H]3CC[C@@H]4C[C@H](O)CC[C@]4(C)[C@H]3C[C@@H](O)[C@]12C [RC-4]	A (efficacy >400%)	< 1000	–	–
